PubChem BioAssay (NCI)
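Five concentrations, 48 hours, 96-well plates. Definition used: TGI = concentration required for complete inhibition of growth.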

Legend:
Assay in all cases: inhibition of tumour cell growth, NCI panel, 48 h
HL-60(TB) leukemia = tested on: HL-60(TB) leukemia
MOLT-4 leukemia = tested on: MOLT-4 leukemia
DMS 114 small cell lung = tested on: DMS 114 small cell lung
ACHN renal = tested on: ACHN renal
A549 NSCLC = tested on: A549 NSCLC
KM12 colon = tested on: KM12 colon
COLO 205 colon = tested on: COLO 205 colon
SW-620 colon = tested on: SW-620 colon
SK-MEL-28 melanoma = tested on: SK-MEL-28 melanoma
HOP-62 NSCLC = tested on: HOP-62 NSCLC
LXFL 529 NSCLC = tested on: LXFL 529 NSCLC
HCT-116 colon = tested on: HCT-116 colon
SF-295 CNS = tested on: SF-295 CNS
OVCAR-8 ovarian = tested on: OVCAR-8 ovarian
SNB-19 CNS = tested on: SNB-19 CNS
HCT-15 colon = tested on: HCT-15 colon
K-562 leukemia = tested on: K-562 leukemia
MALME-3M melanoma = tested on: MALME-3M melanoma
NCI-H23 lung = tested on: NCI-H23 lung
UO-31 renal = tested on: UO-31 renal
OVCAR-4 ovarian = tested on: OVCAR-4 ovarian
HT29 colon = tested on: HT29 colon
DMS 273 small cell lung = tested on: DMS 273 small cell lung
M19-MEL melanoma = tested on: M19-MEL melanoma
KM20L2 colon = tested on: KM20L2 colon
786-0 renal = tested on: 786-0 renal
RPMI-8226 leukemia = tested on: RPMI-8226 leukemia
U251 CNS = tested on: U251 CNS
SR leukemia = tested on: SR leukemia
HOP-18 NSCLC = tested on: HOP-18 NSCLC
SN12C renal = tested on: SN12C renal
NCI-H460 lung = tested on: NCI-H460 lung
SK-MEL-2 melanoma = tested on: SK-MEL-2 melanoma
SNB-78 CNS = tested on: SNB-78 CNS
TK-10 renal = tested on: TK-10 renal
NCI-H522 lung = tested on: NCI-H522 lung
EKVX NSCLC = tested on: EKVX NSCLC
SNB-75 CNS = tested on: SNB-75 CNS
UACC-62 melanoma = tested on: UACC-62 melanoma
SK-OV-3 ovarian = tested on: SK-OV-3 ovarian
CCRF-CEM leukemia = tested on: CCRF-CEM leukemia
SK-MEL-5 melanoma = tested on: SK-MEL-5 melanoma
UACC-257 melanoma = tested on: UACC-257 melanoma
LOX IMVI melanoma = tested on: LOX IMVI melanoma
NCI-H226 lung = tested on: NCI-H226 lung
RXF 393 renal = tested on: RXF 393 renal
SF-268 CNS = tested on: SF-268 CNS
M14 melanoma = tested on: M14 melanoma
HOP-92 NSCLC = tested on: HOP-92 NSCLC
DLD-1 colon = tested on: DLD-1 colon
OVCAR-5 ovarian = tested on: OVCAR-5 ovarian
CAKI-1 renal = tested on: CAKI-1 renal
IGROV1 ovarian = tested on: IGROV1 ovarian
A498 renal = tested on: A498 renal
SF-539 CNS = tested on: SF-539 CNS
OVCAR-3 ovarian = tested on: OVCAR-3 ovarian
HCC-2998 colon = tested on: HCC-2998 colon
PC-3 prostate = tested on: PC-3 prostate
MDA-MB-435 = tested on: MDA-MB-435
T-47D breast = tested on: T-47D breast
DU-145 prostate = tested on: DU-145 prostate
NCI/ADR-RES ovarian = tested on: NCI/ADR-RES ovarian
MDA-MB-231 breast = tested on: MDA-MB-231 breast
MCF7 breast = tested on: MCF7 breast
HS 578T breast = tested on: HS 578T breast
BT-549 breast = tested on: BT-549 breast
MDA-N = tested on: MDA-N

CC(=O)O[C@]12CCCCC1C1(O)C(O)CCCC[C@H]12 (stereo partly drawn)
TGI (HL-60(TB) leukemia): > 100 µM
TGI (MOLT-4 leukemia): > 100 µM
TGI (DMS 114 small cell lung): > 100 µM
TGI (ACHN renal): > 100 µM
TGI (A549 NSCLC): > 100 µM
TGI (KM12 colon): > 100 µM
TGI (COLO 205 colon): > 100 µM
TGI (SW-620 colon): > 100 µM
TGI (SK-MEL-28 melanoma): > 100 µM
TGI (HOP-62 NSCLC): > 100 µM
TGI (LXFL 529 NSCLC): > 100 µM
TGI (HCT-116 colon): > 100 µM
TGI (SF-295 CNS): > 100 µM
TGI (OVCAR-8 ovarian): > 100 µM
TGI (SNB-19 CNS): > 100 µM
TGI (HCT-15 colon): > 100 µM
TGI (K-562 leukemia): > 100 µM
TGI (MALME-3M melanoma): > 100 µM
TGI (NCI-H23 lung): > 100 µM
TGI (UO-31 renal): > 100 µM
TGI (OVCAR-4 ovarian): > 100 µM
TGI (HT29 colon): > 100 µM
TGI (DMS 273 small cell lung): > 100 µM
TGI (M19-MEL melanoma): > 100 µM
TGI (KM20L2 colon): > 100 µM
TGI (786-0 renal): > 100 µM
TGI (RPMI-8226 leukemia): > 100 µM
TGI (U251 CNS): > 100 µM
TGI (SR leukemia): > 100 µM
TGI (HOP-18 NSCLC): > 100 µM
TGI (SN12C renal): > 100 µM
TGI (NCI-H460 lung): > 100 µM
TGI (SK-MEL-2 melanoma): > 100 µM
TGI (SNB-78 CNS): > 100 µM
TGI (TK-10 renal): > 100 µM
TGI (NCI-H522 lung): > 100 µM
TGI (EKVX NSCLC): > 100 µM
TGI (SNB-75 CNS): > 100 µM
TGI (UACC-62 melanoma): > 100 µM
TGI (SK-OV-3 ovarian): > 100 µM
TGI (CCRF-CEM leukemia): > 100 µM
TGI (SK-MEL-5 melanoma): > 100 µM
TGI (UACC-257 melanoma): > 100 µM
TGI (LOX IMVI melanoma): > 100 µM
TGI (NCI-H226 lung): > 100 µM
TGI (RXF 393 renal): > 100 µM
TGI (SF-268 CNS): > 100 µM
TGI (M14 melanoma): > 100 µM

C=CCCCCn1c2ccccc2c2c(C)c3c[n+](C)ccc3c(C)c21
TGI (HL-60(TB) leukemia): 0.921 µM
TGI (MOLT-4 leukemia): 1.28 µM
TGI (DMS 114 small cell lung): 0.811 µM
TGI (HOP-92 NSCLC): 0.783 µM
TGI (ACHN renal): 12.8 µM
TGI (A549 NSCLC): 4.52 µM
TGI (KM12 colon): 1.6 µM
TGI (COLO 205 colon): 1.08 µM
TGI (SW-620 colon): 1.34 µM
TGI (SK-MEL-28 melanoma): 1.41 µM
TGI (DLD-1 colon): 2.52 µM
TGI (HOP-62 NSCLC): 1.94 µM
TGI (LXFL 529 NSCLC): 1.32 µM
TGI (HCT-116 colon): 1.25 µM
TGI (SF-295 CNS): 2.6 µM
TGI (OVCAR-8 ovarian): 1.28 µM
TGI (SNB-19 CNS): 1.73 µM
TGI (K-562 leukemia): 1.29 µM
TGI (MALME-3M melanoma): 1.16 µM
TGI (UO-31 renal): 19.4 µM
TGI (OVCAR-4 ovarian): 1.27 µM
TGI (HT29 colon): 1.75 µM
TGI (OVCAR-5 ovarian): 3.26 µM
TGI (M19-MEL melanoma): 1.41 µM
TGI (CAKI-1 renal): 39 µM
TGI (KM20L2 colon): 2.31 µM
TGI (RPMI-8226 leukemia): 1.43 µM
TGI (U251 CNS): 1.14 µM
TGI (IGROV1 ovarian): 1.4 µM
TGI (SR leukemia): 1.1 µM
TGI (HOP-18 NSCLC): 1.15 µM
TGI (A498 renal): 4.42 µM
TGI (SK-MEL-2 melanoma): 1.52 µM
TGI (TK-10 renal): 6.89 µM
TGI (NCI-H522 lung): 0.608 µM
TGI (UACC-62 melanoma): 1.28 µM
TGI (SF-539 CNS): 1.83 µM
TGI (SK-OV-3 ovarian): 3.2 µM
TGI (CCRF-CEM leukemia): 2.02 µM
TGI (SK-MEL-5 melanoma): 1.36 µM
TGI (UACC-257 melanoma): 1.47 µM
TGI (RXF 393 renal): 2.11 µM
TGI (SF-268 CNS): 1.56 µM
TGI (M14 melanoma): 2.19 µM
TGI (OVCAR-3 ovarian): 1.52 µM

CSc1n[nH]c2n[nH]c(C)c12
TGI (HL-60(TB) leukemia): > 100 µM
TGI (MOLT-4 leukemia): > 100 µM
TGI (HOP-92 NSCLC): > 100 µM
TGI (HCC-2998 colon): > 100 µM
TGI (ACHN renal): > 100 µM
TGI (A549 NSCLC): > 100 µM
TGI (PC-3 prostate): > 100 µM
TGI (KM12 colon): > 100 µM
TGI (MDA-MB-435): > 100 µM
TGI (COLO 205 colon): > 100 µM
TGI (SW-620 colon): > 100 µM
TGI (SK-MEL-28 melanoma): > 100 µM
TGI (HOP-62 NSCLC): > 100 µM
TGI (HCT-116 colon): > 100 µM
TGI (SF-295 CNS): > 100 µM
TGI (T-47D breast): > 100 µM
TGI (DU-145 prostate): > 100 µM
TGI (OVCAR-8 ovarian): > 100 µM
TGI (NCI/ADR-RES ovarian): > 100 µM
TGI (SNB-19 CNS): > 100 µM
TGI (HCT-15 colon): > 100 µM
TGI (K-562 leukemia): > 100 µM
TGI (MALME-3M melanoma): > 100 µM
TGI (NCI-H23 lung): > 100 µM
TGI (UO-31 renal): > 100 µM
TGI (OVCAR-4 ovarian): > 100 µM
TGI (HT29 colon): > 100 µM
TGI (MDA-MB-231 breast): > 100 µM
TGI (OVCAR-5 ovarian): > 100 µM
TGI (CAKI-1 renal): > 100 µM
TGI (786-0 renal): > 100 µM
TGI (RPMI-8226 leukemia): > 100 µM
TGI (U251 CNS): > 100 µM
TGI (IGROV1 ovarian): > 100 µM
TGI (SR leukemia): > 100 µM
TGI (SN12C renal): > 100 µM
TGI (MCF7 breast): > 100 µM
TGI (NCI-H460 lung): > 100 µM
TGI (HS 578T breast): > 100 µM
TGI (A498 renal): > 100 µM
TGI (SK-MEL-2 melanoma): > 100 µM
TGI (TK-10 renal): > 100 µM
TGI (NCI-H522 lung): > 100 µM
TGI (EKVX NSCLC): > 100 µM
TGI (SNB-75 CNS): > 100 µM
TGI (UACC-62 melanoma): > 100 µM
TGI (SF-539 CNS): > 100 µM
TGI (SK-OV-3 ovarian): > 100 µM
TGI (CCRF-CEM leukemia): > 100 µM
TGI (BT-549 breast): > 100 µM
TGI (SK-MEL-5 melanoma): > 100 µM
TGI (UACC-257 melanoma): > 100 µM
TGI (LOX IMVI melanoma): > 100 µM
TGI (NCI-H226 lung): > 100 µM
TGI (RXF 393 renal): > 100 µM
TGI (MDA-N): > 100 µM
TGI (SF-268 CNS): > 100 µM
TGI (M14 melanoma): > 100 µM
TGI (OVCAR-3 ovarian): > 100 µM

CCOP(=O)(OCC)/C(C#N)=C/c1cc(O)ccc1O
TGI (DMS 114 small cell lung): > 100 µM
TGI (HOP-92 NSCLC): > 100 µM
TGI (ACHN renal): > 100 µM
TGI (KM12 colon): > 100 µM
TGI (COLO 205 colon): > 100 µM
TGI (SK-MEL-28 melanoma): > 100 µM
TGI (HOP-62 NSCLC): > 100 µM
TGI (LXFL 529 NSCLC): > 100 µM
TGI (HCT-116 colon): > 100 µM
TGI (SF-295 CNS): > 100 µM
TGI (SNB-19 CNS): > 100 µM
TGI (K-562 leukemia): > 100 µM
TGI (MALME-3M melanoma): > 100 µM
TGI (NCI-H23 lung): > 100 µM
TGI (UO-31 renal): > 100 µM
TGI (OVCAR-4 ovarian): > 100 µM
TGI (HT29 colon): > 100 µM
TGI (OVCAR-5 ovarian): > 100 µM
TGI (M19-MEL melanoma): > 100 µM
TGI (KM20L2 colon): > 100 µM
TGI (RPMI-8226 leukemia): > 100 µM
TGI (U251 CNS): > 100 µM
TGI (IGROV1 ovarian): > 100 µM
TGI (NCI-H460 lung): > 100 µM
TGI (A498 renal): > 100 µM
TGI (SK-MEL-2 melanoma): > 100 µM
TGI (SNB-78 CNS): > 100 µM
TGI (SNB-75 CNS): > 100 µM
TGI (UACC-62 melanoma): > 100 µM
TGI (SF-539 CNS): > 100 µM
TGI (SK-OV-3 ovarian): > 100 µM
TGI (UACC-257 melanoma): > 100 µM
TGI (RXF 393 renal): > 100 µM
TGI (SF-268 CNS): > 100 µM
TGI (M14 melanoma): > 100 µM
TGI (OVCAR-3 ovarian): > 100 µM
